Consider two compounds from patent US5760285A, “Phosphonyldipeptides useful in the treatment of cardiovascular diseases” (priority 1994, dated 1998).

Test [1] has as its target T1, NEP (Rattus norvegicus, UniProt P07861).
T1 construct: Membranes from kidney cortex were prepared according to the following procedure; from tissue; host or cells: rat kidney cortex membranes
T1 sequence (P07861 1-750): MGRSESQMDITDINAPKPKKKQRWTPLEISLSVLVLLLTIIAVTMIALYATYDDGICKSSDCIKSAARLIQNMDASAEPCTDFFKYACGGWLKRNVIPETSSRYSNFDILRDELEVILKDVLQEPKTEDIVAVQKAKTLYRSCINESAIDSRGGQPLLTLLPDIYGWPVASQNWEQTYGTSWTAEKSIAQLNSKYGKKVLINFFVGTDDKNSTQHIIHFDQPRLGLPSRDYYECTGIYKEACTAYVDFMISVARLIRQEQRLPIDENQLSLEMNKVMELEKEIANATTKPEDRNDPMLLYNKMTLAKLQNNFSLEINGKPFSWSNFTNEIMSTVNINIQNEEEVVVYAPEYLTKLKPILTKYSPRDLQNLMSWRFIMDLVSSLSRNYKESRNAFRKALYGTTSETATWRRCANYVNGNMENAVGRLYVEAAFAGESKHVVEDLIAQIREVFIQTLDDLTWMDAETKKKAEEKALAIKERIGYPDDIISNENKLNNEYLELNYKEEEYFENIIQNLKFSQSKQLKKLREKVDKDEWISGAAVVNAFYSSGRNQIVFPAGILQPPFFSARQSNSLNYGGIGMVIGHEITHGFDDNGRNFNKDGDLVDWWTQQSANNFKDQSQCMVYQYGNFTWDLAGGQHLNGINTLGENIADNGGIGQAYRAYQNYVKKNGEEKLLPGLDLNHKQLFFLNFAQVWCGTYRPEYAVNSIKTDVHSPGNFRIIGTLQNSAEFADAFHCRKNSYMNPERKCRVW
As to the kind of experiment: "In vitro" NEP-inhibitory activity (rat kidney cortex membranes, [3H][Leu5]-enkephaline). The class given is biochemical. The note with it: membranes from rat kidney cortex. Here is the method: a) NEP-inhibitory activity
Membranes from kidney cortex were prepared according to the following procedure.
Cortex was carefully dissected, finely minced and suspended in a homogenization buffer (10 mM sodium phosphate pH 7.4 containing 1 mM MgCl2, 30 mM NaCl, 0.02% NaN3) 1:15 weight/volume.
The tissue was then homogenized for 30 seconds using an Ultra-Turrax homogenizer.
The membranes were collected from the buffer/sucrose interface, washed twice with 50 mM TRIS/HCl buffer (pH 7.4) and resuspended into the same buffer for storage.
The membranes were stored in small aliquots at -80° C. until use.
The NEP-inhibitory activity was evaluated by using the following method.
Incubation (20 minutes at 30° C.) was stopped by adding HCl 0.1M (100 μl).

Test [2] addresses T2, ACE (Oryctolagus cuniculus, UniProt P12822).
T2 construct: ACE (250 mU/ml purified by lung rabbit, EC 3.4.15.1 SIGMA); purchased SIGMA; host or cells: rabbit lung
T2 sequence (P12822 34-1310): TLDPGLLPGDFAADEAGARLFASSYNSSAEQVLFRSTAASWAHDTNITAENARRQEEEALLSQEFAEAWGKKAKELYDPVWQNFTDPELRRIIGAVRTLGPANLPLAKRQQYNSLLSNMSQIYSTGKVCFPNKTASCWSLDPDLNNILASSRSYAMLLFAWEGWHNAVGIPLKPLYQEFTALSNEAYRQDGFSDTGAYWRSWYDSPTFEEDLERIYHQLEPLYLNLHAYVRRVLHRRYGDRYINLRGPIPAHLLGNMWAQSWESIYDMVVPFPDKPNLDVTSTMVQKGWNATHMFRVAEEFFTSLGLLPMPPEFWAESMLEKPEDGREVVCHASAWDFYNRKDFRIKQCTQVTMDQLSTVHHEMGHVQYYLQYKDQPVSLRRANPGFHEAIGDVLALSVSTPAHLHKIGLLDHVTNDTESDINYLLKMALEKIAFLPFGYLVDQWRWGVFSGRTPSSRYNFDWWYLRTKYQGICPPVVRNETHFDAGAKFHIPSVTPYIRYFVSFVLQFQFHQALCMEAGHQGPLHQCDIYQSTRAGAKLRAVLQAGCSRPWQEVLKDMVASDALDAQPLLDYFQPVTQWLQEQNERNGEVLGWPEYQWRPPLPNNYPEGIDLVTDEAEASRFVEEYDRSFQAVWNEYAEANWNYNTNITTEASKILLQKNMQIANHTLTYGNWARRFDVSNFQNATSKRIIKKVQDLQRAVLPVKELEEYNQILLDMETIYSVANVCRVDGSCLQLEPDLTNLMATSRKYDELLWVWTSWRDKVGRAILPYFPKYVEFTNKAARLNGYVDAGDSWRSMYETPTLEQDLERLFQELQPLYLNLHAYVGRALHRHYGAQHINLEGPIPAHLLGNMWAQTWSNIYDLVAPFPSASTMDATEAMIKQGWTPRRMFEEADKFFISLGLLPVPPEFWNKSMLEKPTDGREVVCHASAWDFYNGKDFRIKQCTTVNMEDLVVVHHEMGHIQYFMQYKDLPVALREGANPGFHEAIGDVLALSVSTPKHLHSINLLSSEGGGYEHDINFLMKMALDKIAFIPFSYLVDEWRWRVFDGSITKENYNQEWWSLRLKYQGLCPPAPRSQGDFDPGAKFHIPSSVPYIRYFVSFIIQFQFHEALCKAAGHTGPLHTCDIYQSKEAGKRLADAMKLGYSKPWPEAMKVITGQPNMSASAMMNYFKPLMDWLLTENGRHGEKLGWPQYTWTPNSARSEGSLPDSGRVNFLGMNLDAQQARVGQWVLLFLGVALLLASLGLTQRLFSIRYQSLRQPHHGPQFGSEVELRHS
Put plainly: "In vitro" ACE-inhibitory activity (FAPGG substrate). The class given is biochemical. The note with it: ACE purified by lung rabbit; tested as lithium salts. The method, then: b) ACE-inhibitory activity
The reaction was started by adding furylacryloylphenylalanylglycylglycine 0.8 mM (FAPGG-SIGMA).
Contemporaneously, by using a Beckman DU-50 spectrophotometer provided with a program for calculating delta A/minutes and regression coefficients of the enzyme kinetics curves, the absorbance at 340 nm was recorded in continuo for 5 minutes.

For `C[C@H](CS)C(=O)N1CCC[C@H]1C(=O)O` [Captopril], in test [1] (tested as lithium salts), the “NEP-inhibitory activity IC50 (nM)” value is “not active”.
On to `O=C([O-])[C@H](Cc1ccccc1)NC(=O)[C@H](Cc1ccccc1)NP(=O)(O)CCCCc1ccccc1.O=C([O-])[C@H](Cc1ccccc1)NC(=O)[C@H](Cc1ccccc1)NP(=O)(O)CCCCc1ccccc1.[Li+].[Li+]` [Compound R-5, N-[N'-(4-phenyl)butylphosphonyl-L-phenylalanyl]-L-phenylalanine dilithium salt], for which the IC50 (in general, the concentration at which inhibition is half-maximal) in test [2] was found to be 20 nM. The same compound showed an NEP inhibition in test [1] (at a concentration corresponding to 10^-8 M) of 42%.
